Laboratory results as given in US7962204B2 (priority 2001, dated 2011).

Test system: behaviorally-diagnosed psychiatric conditions (DSM categories)
Parameters: species or system human
Details: in vivo
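Throughout, for use code of agent in 301.7 Antisocial Personality Disorder: N marks novel agent found effective in subject subgroups.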
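Throughout, for use code of agent in 301.83 Borderline Personality Disorder: N marks novel agent found effective in subject subgroups.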
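Throughout, for use in 307.50 Eating Disorder NOS: N marks novel agent found effective in subject subgroups.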
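Throughout, for use in 307.51 Bulimia Nervosa: N marks novel agent found effective in subject subgroups.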
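Throughout, for use in 313.81 Oppositional Defiant Disorder: N marks novel agent found effective in subject subgroups.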

Clc1cccc(Cl)c1N=C1NCCN1 [CLONIDINE]
N: use code of agent in 316 Psychological Factors Affecting Medical Condition, Hypertensive Disorder NOS

COC(=O)C(c1ccccc1)C1CCCCN1 (stereo not shown) [METHYLPHENIDATE]
N: use code of agent in 294.9 Cognitive Disorder NOS | use code of agent in 296.90 Mood Disorder NOS | use code of agent in 300.4 Dysthymic Disorder | use code of agent in 301.13 Cyclothymic Disorder | use code of agent in 307.1 Anorexia Nervosa | use code of agent in 307.50 Eating Disorder NOS | use code of agent in 307.51 Bulimia Nervosa | use code of agent in 312.30 Impulse-Control Disorder NOS | use code of agent in 312.31 Pathological Gambling | use code of agent in 312.39 Trichotillomania | use code of agent in 312.8 Conduct Disorder | use code of agent in 313.81 Oppositional Defiant Disorder | use code of agent in 315.9 Learning Disorder NOS

O=C(NCCN1CCOCC1)c1ccc(Cl)cc1 [MOCLOBEMIDE]
N: use code of agent in 302.71 Hypoactive Sexual Desire Disorder | use code of agent in 316 Psychological Factors Affecting Medical Condition, Hypertensive Disorder NOS

COCCc1ccc(OCC(O)CNC(C)C)cc1 (stereo not shown) [METOPOLOL]
N: use code of agent in 296.89 Bipolar II Disorder | use code of agent in 296.90 Mood Disorder NOS | use code of agent in 301.13 Cyclothymic Disorder | use code of agent in 301.20 Schizoid Personality Disorder | use code of agent in 301.22 Schizotypal Personality Disorder | use code of agent in 301.4 Obsessive-Compulsive Personality Disorder | use code of agent in 301.50 Histrionic Personality Disorder | use code of agent in 301.6 Dependent Personality Disorder | use code of agent in 301.7 Antisocial Personality Disorder | use code of agent in 301.82 Avoidant Personality Disorder | use code of agent in 301.83 Borderline Personality Disorder | use code of agent in 307.42 Primary Insomnia | use code of agent in 311 Depressive Disorder NOS | use code of agent in 312.34 Intermittent Explosive Disorder | use code of agent in 312.39 Trichotillomania | use code of agent in 316 Psychological Factors Affecting Medical Condition, Hypertensive Disorder NOS | use code of agent in 316 Psychological Factors Affecting Medical Condition, Irritable Bowel Syndrome | use code of agent in 316 Psychological Factors Affecting Medical Condition, Neurodermatitis | use code of agent in Bipolar I Disorder | use code of agent in Major Depressive Disorder, Recurrent | use code of agent in Major Depressive Disorder, Single Episode | use in 294.9 Cognitive Disorder NOS | use in 299.00 Autistic Disorder | use in 299.80 Pervasive Developmental Disorder NOS | use in 300.00 Anxiety Disorder NOS | use in 300.02 Generalized Anxiety Disorder | use in 300.22 Agoraphobia Without History of Panic Disorder | use in 300.23 Social Phobia | use in 300.3 Obsessive-Compulsive Disorder | use in 307.1 Anorexia Nervosa | use in 307.20 Tic Disorder NOS | use in 307.22 Chronic Motor or Vocal Tic Disorder | use in 307.23 Tourette's Disorder | use in 307.50 Eating Disorder NOS | use in 307.51 Bulimia Nervosa | use in 309.21 Separation Anxiety Disorder | use in 309.81 Posttraumatic Stress Disorder | use in 312.30 Impulse-Control Disorder NOS | use in 312.31 Pathological Gambling | use in 312.8 Conduct Disorder | use in 313.81 Oppositional Defiant Disorder | use in 315.9 Learning Disorder NOS | use in Attention-Deficit/Hyperactivity Disorder | use in Panic Disorder | use of the agent in the diagnostic category (C = common use; N = novel use from rEEG features)

CC(C)(N)Cc1ccccc1 [PHENTERMINE]
N: use code of agent in 294.9 Cognitive Disorder NOS | use code of agent in 300.4 Dysthymic Disorder | use code of agent in 307.50 Eating Disorder NOS | use code of agent in 312.8 Conduct Disorder | use of agent in DSM category (C/N code)

GABA [reference compound]
N: agent found effective in 300.00 Anxiety Disorder NOS | agent found effective in 300.02 Generalized Anxiety Disorder | agent found effective in 300.22 Agoraphobia Without History of Panic Disorder | agent found effective in 300.23 Social Phobia | agent found effective in 300.29 Specific Phobia | agent found effective in 300.3 Obsessive-Compulsive Disorder | agent found effective in 309.81 Posttraumatic Stress Disorder | agent found effective in Panic Disorder | use code of agent in 301.4 Obsessive-Compulsive Personality Disorder | use code of agent in 301.7 Antisocial Personality Disorder | use code of agent in 301.82 Avoidant Personality Disorder | use code of agent in 301.83 Borderline Personality Disorder | use code of agent in 307.42 Primary Insomnia | use code of agent in 316 Psychological Factors Affecting Medical Condition, Neurodermatitis | use in 300.00 Anxiety Disorder NOS | use in 300.02 Generalized Anxiety Disorder | use in 300.22 Agoraphobia Without History of Panic Disorder | use in 300.23 Social Phobia | use in 300.29 Specific Phobia | use in 300.3 Obsessive-Compulsive Disorder | use in 307.1 Anorexia Nervosa | use in 307.22 Chronic Motor or Vocal Tic Disorder | use in 307.50 Eating Disorder NOS | use in 307.51 Bulimia Nervosa | use in 309.21 Separation Anxiety Disorder | use in 309.81 Posttraumatic Stress Disorder | use in 313.81 Oppositional Defiant Disorder | use in Panic Disorder | use of the agent in the diagnostic category (C = common use; N = novel use from rEEG features)

N=C(N)NC(=O)Cc1c(Cl)cccc1Cl [[…]]
N: use code of agent in 316 Psychological Factors Affecting Medical Condition, Hypertensive Disorder NOS

NC1=NC(=O)C(c2ccccc2)O1 (stereo not shown) [PEMOLINE]
N: use code of agent in 294.8 Amnestic Disorder | use code of agent in 294.9 Cognitive Disorder NOS | use code of agent in 296.90 Mood Disorder NOS | use code of agent in 300.4 Dysthymic Disorder | use code of agent in 301.13 Cyclothymic Disorder | use code of agent in 307.1 Anorexia Nervosa | use code of agent in 307.50 Eating Disorder NOS | use code of agent in 307.51 Bulimia Nervosa | use code of agent in 312.30 Impulse-Control Disorder NOS | use code of agent in 312.31 Pathological Gambling | use code of agent in 312.8 Conduct Disorder | use code of agent in 313.81 Oppositional Defiant Disorder | use code of agent in 315.9 Learning Disorder NOS | use of agent in DSM category (C/N code)

Cc1ccc(-c2nc3ccc(C)cn3c2CC(=O)N(C)C)cc1 [ZOLIPIDEM]
N: use of the agent in the diagnostic category (C = common use; N = novel use from rEEG features)

COC(=O)C(c1ccccc1)C1CCCCN1 (stereo not shown) [SR METHYLPHENIDATE]
N: use code of agent in 294.8 Amnestic Disorder | use code of agent in 296.89 Bipolar II Disorder | use code of agent in 312.34 Intermittent Explosive Disorder | use code of agent in Dementia of the Alzheimer's Type | use in 299.80 Pervasive Developmental Disorder NOS | use in 300.00 Anxiety Disorder NOS | use in 300.02 Generalized Anxiety Disorder | use in 300.22 Agoraphobia Without History of Panic Disorder | use in 300.23 Social Phobia | use in 300.29 Specific Phobia | use in 300.3 Obsessive-Compulsive Disorder | use in 307.22 Chronic Motor or Vocal Tic Disorder | use in 307.9 Communication Disorder NOS | use in 309.21 Separation Anxiety Disorder | use in 309.81 Posttraumatic Stress Disorder | use in Panic Disorder | use of agent in DSM category (C/N code) | use of the agent in the diagnostic category (C = common use; N = novel use from rEEG features)

C[C@H](N)Cc1ccccc1 [DEXEDRINE]
N: use code of agent in 294.9 Cognitive Disorder NOS | use code of agent in 296.90 Mood Disorder NOS | use code of agent in 300.4 Dysthymic Disorder | use code of agent in 301.13 Cyclothymic Disorder | use code of agent in 307.1 Anorexia Nervosa | use code of agent in 307.50 Eating Disorder NOS | use code of agent in 307.51 Bulimia Nervosa | use code of agent in 312.30 Impulse-Control Disorder NOS | use code of agent in 312.31 Pathological Gambling | use code of agent in 312.39 Trichotillomania | use code of agent in 312.8 Conduct Disorder | use code of agent in 313.81 Oppositional Defiant Disorder | use code of agent in 315.9 Learning Disorder NOS

NNCCc1ccccc1 [PHENALZINE]
N: use code of agent in 301.20 Schizoid Personality Disorder | use code of agent in 301.4 Obsessive-Compulsive Personality Disorder | use code of agent in 301.50 Histrionic Personality Disorder | use code of agent in 301.6 Dependent Personality Disorder | use code of agent in 301.7 Antisocial Personality Disorder | use code of agent in 301.82 Avoidant Personality Disorder | use code of agent in 301.83 Borderline Personality Disorder | use code of agent in 302.71 Hypoactive Sexual Desire Disorder | use code of agent in 307.42 Primary Insomnia | use code of agent in 311 Depressive Disorder NOS | use code of agent in 316 Psychological Factors Affecting Medical Condition, Atypical Asthma | use code of agent in 316 Psychological Factors Affecting Medical Condition, Neurodermatitis | use code of agent in Bipolar I Disorder | use code of agent in Major Depressive Disorder, Recurrent | use code of agent in Major Depressive Disorder, Single Episode | use in 294.9 Cognitive Disorder NOS | use in 296.89 Bipolar II Disorder | use in 296.90 Mood Disorder NOS | use in 299.80 Pervasive Developmental Disorder NOS | use in 300.00 Anxiety Disorder NOS | use in 300.22 Agoraphobia Without History of Panic Disorder | use in 300.23 Social Phobia | use in 300.29 Specific Phobia | use in 300.3 Obsessive-Compulsive Disorder | use in 300.4 Dysthymic Disorder | use in 301.13 Cyclothymic Disorder | use in 307.1 Anorexia Nervosa | use in 307.50 Eating Disorder NOS | use in 307.51 Bulimia Nervosa | use in 309.21 Separation Anxiety Disorder | use in 309.81 Posttraumatic Stress Disorder | use in 312.31 Pathological Gambling | use in 312.34 Intermittent Explosive Disorder | use in 312.39 Trichotillomania | use in 312.8 Conduct Disorder | use in 313.81 Oppositional Defiant Disorder | use in 315.9 Learning Disorder NOS | use in Attention-Deficit/Hyperactivity Disorder | use in Panic Disorder | use of the agent in the diagnostic category (C = common use; N = novel use from rEEG features)

CN[C@@H](C)Cc1ccccc1 [METHAMPHETAMINE]
N: use code of agent in 294.9 Cognitive Disorder NOS | use code of agent in 296.90 Mood Disorder NOS | use code of agent in 300.4 Dysthymic Disorder | use code of agent in 301.13 Cyclothymic Disorder | use code of agent in 307.1 Anorexia Nervosa | use code of agent in 307.51 Bulimia Nervosa | use code of agent in 312.30 Impulse-Control Disorder NOS | use code of agent in 312.31 Pathological Gambling | use code of agent in 312.39 Trichotillomania | use code of agent in 312.8 Conduct Disorder | use code of agent in 313.81 Oppositional Defiant Disorder | use code of agent in 315.9 Learning Disorder NOS

NC12CC3CC(CC(C3)C1)C2 [AMANTADINE]
N: use code of agent in 312.30 Impulse-Control Disorder NOS | use code of agent in 312.8 Conduct Disorder | use code of agent in 313.81 Oppositional Defiant Disorder | use code of agent in 315.9 Learning Disorder NOS | use code of agent in Attention-Deficit/Hyperactivity Disorder
